The test system of data set [1] is BT474 breast cancer cells. Kind of data set: Cell viability (MTT), BT474. It counts as cell-based. To be noted: Homo sapiens, BT-474; BT474, 72 hours; read-out: IC50 of INT2-31, cell viability. On the procedure: (§1) Cell viability (MTT) and CFSE Proliferation assay: Cells were plated in 96-well plates and let adhere overnight. After cell treatment, cell viability was measured by 3-(4,5-dimethylthiazol-2-yl)-2,5-diphenyl tetrazolium bromide (MTT) assay (CellTiter 96® Aqueous, Promega, Madison, Wis.).
(§2) Cell viability and detachment assays: After cells were treated with siRNA transfection, cell viability was measured by 3-(4,5-dimethylthiazol2-yl)-2,5-diphenyl tetrazolium bromide (MTT) assay (CellTiter 96® AQueous, Promega, Madison, Wis.). Briefly, 20 μl of the tetrazolium compound was added to each well. The cells were then incubated at 37° C. for 1 h. The plate was read at 490 nm with a plate reader to determine the viability. In detachment assays, detached and attached cells were harvested separately and counted in a hemocytometer. The percentage of detachment was calculated by dividing the number of detached cells by the total number of cells. Apoptosis assays: After treatment, attached and detached cells were collected, counted and prepared for terminal uridine deoxynucleotidyl transferase (TUNEL) assay by utilizing an APO-BRDU kit (BD Pharmingen, San Diego, Calif.) according to the manufacturer's instructions. Stained cells were analyzed with a fluorescence-activated cell sorting-Calibur flow cytometer (BD Biosciences). […] Apoptotic cells were also analyzed by Hoechst staining. […]

In data set [2] the test system is TE7 esophageal cancer cells. Kind of data set: Cell viability (MTT), TE7. The conditions noted are these: TE7, 72 hours; read-out: IC50 of INT2-31, cell viability. Type of data set: cell-based. On the procedure: as §1, §2
Data set [3] deals with BxPC3 pancreatic cancer cells. The experiment in a line: Cell viability (MTT), BxPC3. The conditions noted are these: Homo sapiens, BXPC-3; BxPC3, 72 hours; read-out: IC50 of INT2-31, cell viability. Type of data set: cell-based. On the procedure:
as §1, §2

For data set [4], the system named is C8161 melanoma cells. The experiment in a line: Cell viability (MTT), C8161. Type of data set: cell-based, human. On the procedure:
as §1
Cell viability and detachment assays: After cells were treated with siRNA transfection, cell viability was measured by 3-(4,5-dimethylthiazol2-yl)-2,5-diphenyl tetrazolium bromide (MTT) assay (CellTiter 96® AQueous, Promega, Madison, Wis.). Briefly, 20 μl of the tetrazolium compound was added to each well. The cells were then incubated at 37° C. for 1 h. The plate was read at 490 nm with a plate reader to determine the viability. In detachment assays, detached and attached cells were harvested separately and counted in a hemocytometer. The percentage of detachment was calculated by dividing the number of detached cells by the total number of cells. Apoptosis assays: After treatment, attached and detached cells were collected, counted and prepared for terminal uridine deoxynucleotidyl transferase (TUNEL) assay by utilizing an APO-BRDU kit (BD Pharmingen, San Diego, Calif.) according to the manufacturer's instructions. Stained cells were analyzed with a fluorescence-activated cell sorting-Calibur flow cytometer (BD Biosciences). Calculation of the percentage of apoptotic cells in the sample was completed with CellQuest software (BD Biosciences). Apoptotic cells were also analyzed by Hoechst staining. Hoechst 33342 ([…]) was added to the fixed cells and the specimens were mounted on glass coverslips. The slides were viewed under the Zeiss microscope for apoptotic nuclei. The percent of apoptotic cells was calculated as the ratio of apoptotic cells to total number of cells.
In addition, the effect of INT2-31 on cell viability of esophageal, pancreatic and breast cancer cell lines was analyzed and the IC50 value for each cell line was determined, as shown in Table 1. […] Similar to melanoma results, INT2-31 inhibits viability more in cancer cells compared to normal cells. Sensitivity of the cells to INT2-31 varied and directly correlated to the FAK and IGF-1R expression level of the cells.
To determine the effect on melanoma cell viability, three human melanoma cell lines were exposed to increasing doses of INT2-31 for 72 h and the results compared to human melanocytes. […] The effects of INT2-31 varied in the three cell lines and was possibly related to constitutive FAK and IGF-1R activation with the least sensitive cell line (SK-MEL-28) having the greatest expression of FAK and IGF-1R.

For data set [5], the system named is esophageal patient #5 cells. The experiment in a line: Cell viability (MTT), esophageal patient #5 cells. It counts as cell-based. The conditions noted are these: Homo sapiens, average IC50. On the procedure:
as §1
To assimilate the effects of targeting the interaction of these proteins in direct patient specimens, a system was developed in which direct esophageal cancer specimens were grown in mice and tissue culture plates to allow fresh human tissue for experimentation. More than 20 tumors and corresponding normal tissue specimens have been obtained from cancer patients. […] To evaluate the in vitro effects of INT2-31 on patient specimens, we utilized MTT assay of cells grown in a tissue culture plate maximum up to eight passages were utilized.

Data set [6] addresses FAK (Homo sapiens, UniProt Q05397). The experiment in a line: Kinase profiler screening, FAK. It counts as biochemical. The conditions noted are these: 1 μM compound, 10 μM ATP. On the procedure: (§3) Kinase Profiler Screening: Kinase specificity screening was performed with Invitrogen's SelectScreen® Kinase Profiling Services http://www.invitrogen.com/site/us/en/home/Products-and-Services/Services/Discoverv-Research/SelectScreen-Profiling-Service/SelectScreen-Kinase-Profiling-Service.html. The screening was performed with 1 μM compound, INT2-31, 10 μM ATP, and kinase substrates against ten recombinant kinases according to Z′-LYTET™ Kinase Assay. For PI3 kinase activity, 100 μM ATP, and kinase substrate were utilized with the Invitrogen Adapta® Universal Kinase Assay protocol. Tumor Growth in Nude Mice in vivo: Six week old athymic, female nude mice were purchased from Harlan Laboratory. The mice were maintained in the animal facility, and all experiments were performed in compliance with NIH animal-use guidelines and under an IACUC approved protocol. Melanoma cells were injected, 5×10^6 cells, subcutaneously. When the tumor size reached 100 mm^3, the INT2-31 was introduced by intraperitoneal injection at a dose of 15 mg/kg daily for 21 days. Tumor diameters were measured with calipers, and tumor volume in mm^3 was calculated using the formula [(width)^2×length]/2. At the end of experiment, tumor weight and volume were determined.

In data set [7] the test system is MCF10A cells. Kind of data set: Cell viability (MTT), MCF10A. The conditions noted are these: Homo sapiens, MCF-10A, 72 hours, read-out: IC50 of INT2-31, cell viability. Type of data set: cell-based. On the procedure: as §1, §2
Data set [8] has as its system PARP, caspase-9, caspase 8. The experiment in a line: Western blot of biochemical markers of the apoptotic pathway. Type of data set: cell-based.
For data set [9], the system named is melanoma tumor. Kind of data set: Melanoma tumor in nude mice, 5 days of treatment. To be noted: 15 mg/kg intraperitoneal for 5 days, p<0.05. It counts as in vivo.
Data set [10] in a line: Previous toxicity testing at 50 mg/kg/day. Type of data set: in vivo, mice. To be noted: 50 mg/kg/day i.p.
The subject of data set [11] is SK-MEL-28 melanoma cells. The experiment in a line: Cell viability (MTT), SK-MEL-28. It counts as cell-based. The conditions noted are these: Homo sapiens; SK-MEL-28, 72 hours; read-out: IC50 of INT2-31, cell viability. On the procedure: as §1, §2
The test system of data set [12] is insulin receptor, VEGFR-1, AKT-1, EGFR, VEGFR-2, c-MET, PDGFRa, p70S6K, Src and PI3Kinase. The experiment in a line: Kinase profiler screening, other protein kinases. Type of data set: biochemical. The conditions noted are these: 1 μM compound. On the procedure: as §3

Consider 1 compound from patent US20120107323A1, “KINASE PROTEIN BINDING INHIBITORS” (University of Florida, priority 2009, published 2012).

Sequence of FAK (Q05397 whole entry): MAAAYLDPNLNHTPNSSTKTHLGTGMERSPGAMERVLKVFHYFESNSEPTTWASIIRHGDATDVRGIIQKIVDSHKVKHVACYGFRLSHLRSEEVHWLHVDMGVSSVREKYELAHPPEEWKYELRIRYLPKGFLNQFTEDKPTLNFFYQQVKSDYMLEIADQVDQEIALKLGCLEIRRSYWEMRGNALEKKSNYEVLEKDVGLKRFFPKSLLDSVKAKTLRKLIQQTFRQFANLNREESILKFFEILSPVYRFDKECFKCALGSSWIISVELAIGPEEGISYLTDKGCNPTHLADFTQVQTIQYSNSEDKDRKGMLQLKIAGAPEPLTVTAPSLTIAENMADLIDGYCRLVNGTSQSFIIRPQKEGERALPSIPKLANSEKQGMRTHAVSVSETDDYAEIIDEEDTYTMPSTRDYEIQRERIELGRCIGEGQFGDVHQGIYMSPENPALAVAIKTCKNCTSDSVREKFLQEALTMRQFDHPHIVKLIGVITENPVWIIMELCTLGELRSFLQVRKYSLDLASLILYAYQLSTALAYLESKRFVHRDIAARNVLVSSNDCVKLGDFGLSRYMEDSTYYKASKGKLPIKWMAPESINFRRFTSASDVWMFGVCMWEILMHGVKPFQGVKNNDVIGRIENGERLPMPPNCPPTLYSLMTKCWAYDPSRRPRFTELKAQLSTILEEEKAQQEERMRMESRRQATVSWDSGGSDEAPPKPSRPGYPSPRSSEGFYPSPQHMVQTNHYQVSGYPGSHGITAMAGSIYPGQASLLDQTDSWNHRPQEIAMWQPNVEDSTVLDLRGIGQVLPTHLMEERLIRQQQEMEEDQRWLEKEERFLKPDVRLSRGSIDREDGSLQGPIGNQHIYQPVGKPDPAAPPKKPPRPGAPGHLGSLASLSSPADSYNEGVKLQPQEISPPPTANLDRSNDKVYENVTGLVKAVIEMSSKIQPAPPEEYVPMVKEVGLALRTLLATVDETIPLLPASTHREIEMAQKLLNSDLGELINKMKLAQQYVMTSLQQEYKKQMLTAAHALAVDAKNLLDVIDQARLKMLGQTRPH

As to `CSc1ncnc2c1ccn2C1O[C@H](COP(=O)(O)O)[C@@H](O)[C@H]1O` (stereo partly drawn) [INT2-31, 4-(Methylthio)-7-(5-O-phosphono-D-ribofuranosyl)-{7H-Pyrrolo[2,3-d]pyrimidine}], the IC50 turned out to be 2.39 µM in [1]; 3.2 µM in data set [2]; 45.6 µM in data set [3]; 0.5 µM in data set [4] (Homo sapiens, C8161, 72 hours, read-out: IC50 of INT2-31, cell viability); 2.18 µM in [5]; 100 µM in [7]. The IC50 in data set [11] worked out at 22.1 µM. Moreover, the “cell viability (in words)” value in data set [4] (C8161, MTT) is “inhibited cell viability in a dose-dependent manner”. The “sensitivity of C8161 cells expressing FAK shRNA compared to parental and mock transfected cells” value in data set [4] (MTT, FAK shRNA1 knockdown) is “significantly less sensitive”. In data set [6], the “kinase activity of FAK” value is listed as “did not inhibit”. In [8] (48 hours of treatment), the “PARP and caspase-9 cleavage” value was “PARP and caspase-9 cleavage”. Besides, the “caspase 8 levels” value in [8] (Western blot) is recorded as “no significant effect”. Moreover, the melanoma tumor regression result in data set [9] was “caused melanoma tumor regression”. Besides, the toxicity result in data set [10] is listed as “no measurable toxicity”. For the same compound, the “inhibition of any of the other protein kinases” value in [12] is on record as no more than 22%.
